Reference: publication PMC12508063, “Chloroindazole based estrogen receptor β ligands with favorable pharmacokinetics promote functional remyelination and visual recovery” (Scientific Reports, 2025)
Values joined by “and” are separate entries in the source; they are usually repeats but may differ in a detail not shown here. Equal values may be shown once. Where a name gives a salt, the structure may show the parent alone.

Assays:
[1] = test system: co-cultures of primary cortical neurons and OPCs; assay: Axon myelination in co-cultures of primary cortical neurons and OPCs; format: cell-based, mouse; details: K102, K110 10 nM; Clemastine, Bazedoxifene 500 nM; 5 days
CYP3A4 = CYP3A4 (Homo sapiens, UniProt P08684); assay: in vitro
CYP3A4, sequence (P08684 whole entry): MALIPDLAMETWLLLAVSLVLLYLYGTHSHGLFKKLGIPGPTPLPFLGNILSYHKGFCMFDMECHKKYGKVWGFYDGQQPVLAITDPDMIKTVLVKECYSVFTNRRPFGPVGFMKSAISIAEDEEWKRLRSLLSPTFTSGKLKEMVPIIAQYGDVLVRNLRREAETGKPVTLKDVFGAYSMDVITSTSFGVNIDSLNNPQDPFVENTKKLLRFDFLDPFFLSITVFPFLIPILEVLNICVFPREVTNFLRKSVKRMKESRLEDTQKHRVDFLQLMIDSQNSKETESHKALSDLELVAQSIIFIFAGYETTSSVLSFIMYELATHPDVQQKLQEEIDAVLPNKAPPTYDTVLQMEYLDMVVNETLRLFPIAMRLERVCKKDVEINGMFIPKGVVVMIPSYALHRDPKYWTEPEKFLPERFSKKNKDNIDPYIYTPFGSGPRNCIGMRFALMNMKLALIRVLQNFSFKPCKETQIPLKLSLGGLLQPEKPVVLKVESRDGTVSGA

ERβ = biological target: T1, ERβ (Homo sapiens, UniProt Q92731); assay: ER reporter gene assay in HEK 293 T cells (ER-luciferase reporter); format: cell-based; details: for Reporter gene assay raw data, ERb: ERb data block (head r19), 4 replicate columns; for ERb reporter gene assay raw data (response): four replicate columns per compound
T1 construct: expressed in transfected cells; host or cells: HEK 293 T cells
T1 sequence (Q92731 whole entry, species assumed): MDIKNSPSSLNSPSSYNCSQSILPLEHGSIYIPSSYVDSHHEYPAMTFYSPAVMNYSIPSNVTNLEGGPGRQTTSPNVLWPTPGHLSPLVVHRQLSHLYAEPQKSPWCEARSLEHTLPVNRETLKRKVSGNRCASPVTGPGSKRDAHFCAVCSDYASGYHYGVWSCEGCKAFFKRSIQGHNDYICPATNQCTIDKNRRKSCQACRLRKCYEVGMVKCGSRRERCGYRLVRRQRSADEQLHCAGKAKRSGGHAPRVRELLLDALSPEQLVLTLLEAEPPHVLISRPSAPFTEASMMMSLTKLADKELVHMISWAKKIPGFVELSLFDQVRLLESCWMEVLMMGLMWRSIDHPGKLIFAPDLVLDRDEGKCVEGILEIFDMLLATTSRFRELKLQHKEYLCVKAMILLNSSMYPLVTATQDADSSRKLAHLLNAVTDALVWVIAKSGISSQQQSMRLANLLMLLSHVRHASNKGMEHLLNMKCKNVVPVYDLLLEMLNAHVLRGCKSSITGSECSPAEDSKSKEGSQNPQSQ

ERα = biological target: T2, ERα (Homo sapiens, UniProt P03372); assay: as above; format: cell-based; details: for Reporter gene assay raw data, ERa: 4 replicate columns
T2 construct: expressed in transfected cells; host or cells: HEK 293 T cells
T2 sequence (P03372 1-595): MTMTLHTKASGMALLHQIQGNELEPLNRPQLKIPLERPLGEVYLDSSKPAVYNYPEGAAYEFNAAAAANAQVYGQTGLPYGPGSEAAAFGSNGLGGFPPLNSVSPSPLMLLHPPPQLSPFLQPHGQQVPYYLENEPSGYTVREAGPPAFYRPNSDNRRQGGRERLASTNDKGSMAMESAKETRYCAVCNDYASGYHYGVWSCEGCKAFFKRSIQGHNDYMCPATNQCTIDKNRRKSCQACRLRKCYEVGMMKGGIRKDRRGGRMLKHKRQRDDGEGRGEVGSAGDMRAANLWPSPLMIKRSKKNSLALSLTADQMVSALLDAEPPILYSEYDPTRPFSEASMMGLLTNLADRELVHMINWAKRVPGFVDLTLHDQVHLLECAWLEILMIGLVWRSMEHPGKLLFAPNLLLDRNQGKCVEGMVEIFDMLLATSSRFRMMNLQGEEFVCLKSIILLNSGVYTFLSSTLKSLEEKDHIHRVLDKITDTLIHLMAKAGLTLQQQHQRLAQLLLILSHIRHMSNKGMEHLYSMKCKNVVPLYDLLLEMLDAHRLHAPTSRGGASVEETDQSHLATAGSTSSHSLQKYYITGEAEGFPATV

CYP2D6 = CYP2D6 (Homo sapiens, UniProt P10635); assay: CYP inhibition; details: human, probe Dextromethorphan
CYP2D6, sequence (P10635 whole entry): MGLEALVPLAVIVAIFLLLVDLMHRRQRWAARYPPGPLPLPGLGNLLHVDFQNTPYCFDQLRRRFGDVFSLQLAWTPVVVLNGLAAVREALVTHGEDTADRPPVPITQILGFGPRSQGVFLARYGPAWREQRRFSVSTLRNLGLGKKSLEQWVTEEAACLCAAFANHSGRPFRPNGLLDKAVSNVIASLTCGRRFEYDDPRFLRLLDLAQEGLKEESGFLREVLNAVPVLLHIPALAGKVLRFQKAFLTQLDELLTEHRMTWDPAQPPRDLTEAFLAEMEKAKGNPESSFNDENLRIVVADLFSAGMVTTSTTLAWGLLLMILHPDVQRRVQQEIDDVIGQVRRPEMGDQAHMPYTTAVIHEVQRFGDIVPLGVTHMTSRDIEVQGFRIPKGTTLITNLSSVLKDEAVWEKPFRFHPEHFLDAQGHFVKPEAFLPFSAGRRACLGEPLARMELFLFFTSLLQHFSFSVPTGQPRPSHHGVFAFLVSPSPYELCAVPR

CYP2C9 = CYP2C9 (Homo sapiens, UniProt P11712); assay: CYP inhibition; details: human
CYP2C9, sequence (P11712 whole entry): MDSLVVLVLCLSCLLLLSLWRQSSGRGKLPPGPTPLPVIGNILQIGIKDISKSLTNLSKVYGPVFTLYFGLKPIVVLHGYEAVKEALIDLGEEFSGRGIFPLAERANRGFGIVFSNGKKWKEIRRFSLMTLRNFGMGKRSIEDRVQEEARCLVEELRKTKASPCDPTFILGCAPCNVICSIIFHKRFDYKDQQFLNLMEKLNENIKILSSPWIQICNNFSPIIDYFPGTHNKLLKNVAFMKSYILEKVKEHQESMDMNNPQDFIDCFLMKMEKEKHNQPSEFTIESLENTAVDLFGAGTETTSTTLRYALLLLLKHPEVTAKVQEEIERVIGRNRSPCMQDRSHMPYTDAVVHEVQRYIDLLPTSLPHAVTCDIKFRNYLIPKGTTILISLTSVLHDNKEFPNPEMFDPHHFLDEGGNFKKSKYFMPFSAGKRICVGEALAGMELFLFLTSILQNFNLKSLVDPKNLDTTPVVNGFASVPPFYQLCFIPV

[2] = Stability in human plasma; format: in vitro ADME
[3] = Plasma protein binding (mouse)
[4] = Plasma protein binding (human)

CN1CCC[C@@H]1CCO[C@](C)(c1ccccc1)c1ccc(Cl)cc1 [Clemastine, Clemastine fumarate]
OL processes wrapping axons [1]: significant increase

CC(=O)N1CCN(c2ccc(OCC3COC(Cn4ccnc4)(c4ccc(Cl)cc4Cl)O3)cc2)CC1 (stereo not shown) [Ketoconazole]
inhibition at 10 µM (CYP3A4; CYP Inhibition Percentage CYP3A4-M): 95.5% | inhibition at 10 µM (CYP3A4; CYP Inhibition Percentage CYP3A4-T): 92.5%

CCCc1c(-c2ccc(O)cc2)nn(-c2ccc(O)cc2)c1-c1ccc(O)cc1 [PPT, propylpyrazoletriol]
Reporter gene assay raw data, ERb (ERβ; Log M -6): 19.5014 and 20.0849 and 23.8882 and 22.6897 | ERb reporter gene assay raw data (response) (ERβ; Log M -6): 21.485 and 20.205 and 17.3019 and 20.855 | Reporter gene assay raw data, ERb (ERβ; Log M -6.47756): 16.4485 and 15.2513 and 19.8755 and 17.389 | ERb reporter gene assay raw data (response) (ERβ; Log M -6.47756): 18.9594 and 20.0074 and 15.2776 and 15.7954 | Reporter gene assay raw data, ERb (ERβ; Log M -6.95468): 10.4714 and 10.5487 and 14.4972 and 14.256 | ERb reporter gene assay raw data (response) (ERβ; Log M -6.95468): 18.4622 and 14.9797 and 13.6041 and 14.8139 | Reporter gene assay raw data, ERb (ERβ; Log M -7.4318): 5.476 and 4.22 and 5.578 and 6.583 | ERb reporter gene assay raw data (response) (ERβ; Log M -7.4318): 10.9473 and 9.898 and 9.008 and 8.195 | Reporter gene assay raw data, ERb (ERβ; Log M -7.91009): 1.07 and -0.6207 and 3.16 and 0.9592 | ERb reporter gene assay raw data (response) (ERβ; Log M -7.91009): 6.169 and 4.563 and 6.678 and 4.2739 | Reporter gene assay raw data, ERb (ERβ; Log M -8.3851): 0.7593 and -1.643 and 0.4997 and -2.03 | ERb reporter gene assay raw data (response) (ERβ; Log M -8.3851): 3.945 and 3.96 and 6.88 and 1.445 | Reporter gene assay raw data, ERb (ERβ; Log M -8.86328): -0.4322 and -1.466 and 2.716 and -1.501 | ERb reporter gene assay raw data (response) (ERβ; Log M -8.86328): 5.736 and 3.2685 and 3.216 and 2.057 | Reporter gene assay raw data, ERb (ERβ; Log M -9.34008): -0.1098 and -1.507 and 1.45 and -0.6901 | ERb reporter gene assay raw data (response) (ERβ; Log M -9.34008): 3.967 and 2.823 and 2.379 and 1.871 | Reporter gene assay raw data, ERb (ERβ; Log M -9.81816): -0.5451 and -0.7163 and 0.1509 and -1.511 | ERb reporter gene assay raw data (response) (ERβ; Log M -9.81816): 1.577 and 2.9115 and 0.9432 and -0.07211 | Reporter gene assay raw data, ERb (ERβ; Log M -10.2941): -1.084 and -0.1568 and -0.6795 and -0.3425 | ERb reporter gene assay raw data (response) (ERβ; Log M -10.2941): 1.736 and 0.3306 and 0.3765 and -0.321 | Reporter gene assay raw data, ERb (ERβ; Log M -10.7721): -1.226 and -1.1541 and -1.046 and -1.761 | ERb reporter gene assay raw data (response) (ERβ; Log M -10.7721): -0.8597 and 0.03179 and -1.5452 and -1.38 | Reporter gene assay raw data, ERb (ERβ; Log M -11.248): -0.3317 and 0.5222 and -1.104 and -1.502 | ERb reporter gene assay raw data (response) (ERβ; Log M -11.248): -0.3358 and 0.6884 and 0.7035 and 0.7906 | ERb reporter gene assay raw data (response) (ERβ; Log M -13): 0.5566 and -0.5566 and 0.8119 and -0.8119 | Reporter gene assay raw data, ERa (ERα; Log M -6, first ERa data block (head r2)): 86.0824 and 79.2296 and 78.3082 and 79.1573 | Reporter gene assay raw data, ERa (ERα; Log M -6, second ERa data block (head r34)): 87.9608 and 88.617 and 93.8527 and 87.2476 | Reporter gene assay raw data, ERa (ERα; Log M -6.47756, first ERa data block (head r2)): 90.8624 and 88.5783 and 89.3316 and 78.0129 | Reporter gene assay raw data, ERa (ERα; Log M -6.47756, second ERa data block (head r34)): 88.252 and 85.7322 and 87.7049 and 87.7177 | Reporter gene assay raw data, ERa (ERα; Log M -6.95468, first ERa data block (head r2)): 87.1769 and 84.3715 and 90.3303 and 89.4496 | Reporter gene assay raw data, ERa (ERα; Log M -6.95468, second ERa data block (head r34)): 95.811 and 91.5253 and 94.4371 and 90.1172 | Reporter gene assay raw data, ERa (ERα; Log M -7.4318, first ERa data block (head r2)): 90.4114 and 87.987 and 94.8392 and 90.7082 | Reporter gene assay raw data, ERa (ERα; Log M -7.4318, second ERa data block (head r34)): 106.107 and 97.2934 and 83.08 and 92.8748 | Reporter gene assay raw data, ERa (ERα; Log M -7.91009, first ERa data block (head r2)): 85.6554 and 95.12 and 98.5558 and 94.3071 | Reporter gene assay raw data, ERa (ERα; Log M -7.91009, second ERa data block (head r34)): 95.0594 and 87.5842 and 88.9618 and 84.8971 | Reporter gene assay raw data, ERa (ERα; Log M -8.3851, first ERa data block (head r2)): 92.5458 and 88.4315 and 85.0988 and 85.7612 | Reporter gene assay raw data, ERa (ERα; Log M -8.3851, second ERa data block (head r34)): 94.3547 and 89.3596 and 80.8197 and 80.3933 | Reporter gene assay raw data, ERa (ERα; Log M -8.86328, first ERa data block (head r2)): 84.8361 and 86.8057 and 82.3746 and 77.2465 | Reporter gene assay raw data, ERa (ERα; Log M -8.86328, second ERa data block (head r34)): 85.9296 and 87.1693 and 76.3853 and 76.3319 | Reporter gene assay raw data, ERa (ERα; Log M -9.34008, first ERa data block (head r2)): 74.7989 and 75.6545 and 77.292 and 82.2909 | Reporter gene assay raw data, ERa (ERα; Log M -9.34008, second ERa data block (head r34)): 84.5588 and 86.4988 and 76.9768 and 80.3165 | Reporter gene assay raw data, ERa (ERα; Log M -9.81816, first ERa data block (head r2)): 61.8395 and 65.1501 and 66.4827 and 65.905 | Reporter gene assay raw data, ERa (ERα; Log M -9.81816, second ERa data block (head r34)): 75.5533 and 73.0444 and 68.3421 and 69.495 | Reporter gene assay raw data, ERa (ERα; Log M -10.2941, first ERa data block (head r2)): 40.0072 and 40.9439 and 38.9576 and 38.1761 | Reporter gene assay raw data, ERa (ERα; Log M -10.2941, second ERa data block (head r34)): 46.869 and 47.8915 and 37.7547 and 39.1778 | Reporter gene assay raw data, ERa (ERα; Log M -10.7721, first ERa data block (head r2)): 19.4359 and 14.8698 and 17.3697 and 15.2983 | Reporter gene assay raw data, ERa (ERα; Log M -10.7721, second ERa data block (head r34)): 13.881 and 18.514 and 18.2618 and 16.0774 | Reporter gene assay raw data, ERa (ERα; Log M -11.248, first ERa data block (head r2)): 4.705 and 3.999 and 3.885 and 4.444 | Reporter gene assay raw data, ERa (ERα; Log M -11.248, second ERa data block (head r34)): 6.356 and 4.574 and 4.487 and 4.951 | ERa reporter gene assay raw data (response) (ERα; Log M -13, four replicate columns per compound): 0.8253 and -0.8253 and 1.478 and -1.478

C=C[C@H]1C[N@@]2CC[C@H]1C[C@@H]2[C@@H](O)c1ccnc2ccc(OC)cc12 [Quinidine]
inhibition at 10 µM (CYP2D6): 92.7%

Nc1ccc(S(=O)(=O)Nc2ccnn2-c2ccccc2)cc1 [Sulfaphenazole]
inhibition at 10 µM (CYP2C9): 93.9%

CC(=O)CC(c1ccccc1)c1c(O)c2ccccc2oc1=O (stereo not shown) [Wafarine]
% Remaining at 6 hr in Human Plasma [2]: 111.24% | Protein Binding (% Bound) Mouse [3]: 93.11% | Protein Binding (% Bound) Human [4]: 98.68%
